Experimental findings from ChEMBL document CHEMBL1155376, “Structure-activity relationships of norepinephrine reuptake inhibitors with benzothiadiazine dioxide or dihydrosulfostyril cores” (Bioorg Med Chem Lett, 2010) are described below.

The structures appear in SMILES notation.

For data set [1], the target named is T1, Sodium-dependent serotonin transporter (Homo sapiens, UniProt P31645). In words: Inhibition of serotonin uptake at human SERT expressed in human JAR.
Target sequence in this assay (P31645 whole entry): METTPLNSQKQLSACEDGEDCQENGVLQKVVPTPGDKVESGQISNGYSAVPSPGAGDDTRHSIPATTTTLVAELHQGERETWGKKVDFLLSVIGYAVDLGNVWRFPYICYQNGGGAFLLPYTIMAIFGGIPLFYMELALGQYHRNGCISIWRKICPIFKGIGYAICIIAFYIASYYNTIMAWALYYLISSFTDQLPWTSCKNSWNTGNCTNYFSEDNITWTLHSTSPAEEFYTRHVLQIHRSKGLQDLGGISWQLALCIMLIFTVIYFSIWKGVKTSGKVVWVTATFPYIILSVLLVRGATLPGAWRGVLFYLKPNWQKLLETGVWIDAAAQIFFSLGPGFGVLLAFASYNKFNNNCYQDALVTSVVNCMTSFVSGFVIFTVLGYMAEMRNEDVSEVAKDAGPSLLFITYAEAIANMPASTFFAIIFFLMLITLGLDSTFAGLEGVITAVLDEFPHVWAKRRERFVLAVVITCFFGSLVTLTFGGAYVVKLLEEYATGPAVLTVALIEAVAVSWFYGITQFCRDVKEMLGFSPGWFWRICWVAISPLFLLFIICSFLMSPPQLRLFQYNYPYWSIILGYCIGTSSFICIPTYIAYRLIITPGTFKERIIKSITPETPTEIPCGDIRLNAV
A short description of data set [2]: Half life in rat liver microsomes at 1 uM. A general note: Liver microsomes are a subcellular fraction often used to study metabolism.
In data set [3] the target is Sodium-dependent noradrenaline transporter (Homo sapiens, UniProt P23975).
Description: Inhibition of norepinephrine uptake at human NET expressed in MDCK-Net6 cells
For data set [4], the target named is T2, Sodium-dependent dopamine transporter (Homo sapiens, UniProt Q01959). In words: biochemical.
Data set [5] relates to Rattus norvegicus. Nature of the data set: Thermoregulatory activity in OVX-induced thermoregulatory dysfunction Sprague-Dawley rat model assessed as maximum reduction in tail-skin temperature at 3 mg/kg, po by implanted temperature and physical activity transmitter. Type of data set: functional.
Data set [6] relates to Rattus norvegicus. Nature of the data set: Thermoregulatory activity in OVX-induced thermoregulatory dysfunction Sprague-Dawley rat model assessed as mean reduction in tail-skin temperature at 3 mg/kg, po by implanted temperature and physical activity transmitter. The data set is classed as functional.
For data set [7], the target named is T2, Sodium-dependent dopamine transporter. In words: Displacement of [3H]WIN-35428 from human recombinant DAT expressed in CHO cells at 1 uM. Type of data set: cell-based.
For data set [8], the target named is T1, Sodium-dependent serotonin transporter. In words: Inhibition of serotonin uptake at human SERT expressed in human JAR at 1 uM.
Target sequence in this assay (P31645 whole entry, looked up): as the sequence (P31645 whole entry) above
The target is the same in data set [9]. Nature of the data set: Inhibition of serotonin uptake at human SERT expressed in human JAR at 6 uM.
Target sequence in this assay (P31645 whole entry, looked up): as the sequence (P31645 whole entry) above
For data set [10], the target named is T2, Sodium-dependent dopamine transporter. In words: Displacement of [3H]WIN-35428 from human recombinant DAT expressed in CHO cells at 10 uM. Type of data set: cell-based. A general note: In a radioligand displacement assay an active substance lowers the binding of a labelled ligand.
Data set [11] has as its system Rattus norvegicus. In words: Duration of thermoregulatory activity in OVX-induced thermoregulatory dysfunction Sprague-Dawley rat model at 3 mg/kg, po by implanted temperature and physical activity transmitter. Type of data set: functional.

Sequence of Sodium-dependent noradrenaline transporter (P23975 whole entry): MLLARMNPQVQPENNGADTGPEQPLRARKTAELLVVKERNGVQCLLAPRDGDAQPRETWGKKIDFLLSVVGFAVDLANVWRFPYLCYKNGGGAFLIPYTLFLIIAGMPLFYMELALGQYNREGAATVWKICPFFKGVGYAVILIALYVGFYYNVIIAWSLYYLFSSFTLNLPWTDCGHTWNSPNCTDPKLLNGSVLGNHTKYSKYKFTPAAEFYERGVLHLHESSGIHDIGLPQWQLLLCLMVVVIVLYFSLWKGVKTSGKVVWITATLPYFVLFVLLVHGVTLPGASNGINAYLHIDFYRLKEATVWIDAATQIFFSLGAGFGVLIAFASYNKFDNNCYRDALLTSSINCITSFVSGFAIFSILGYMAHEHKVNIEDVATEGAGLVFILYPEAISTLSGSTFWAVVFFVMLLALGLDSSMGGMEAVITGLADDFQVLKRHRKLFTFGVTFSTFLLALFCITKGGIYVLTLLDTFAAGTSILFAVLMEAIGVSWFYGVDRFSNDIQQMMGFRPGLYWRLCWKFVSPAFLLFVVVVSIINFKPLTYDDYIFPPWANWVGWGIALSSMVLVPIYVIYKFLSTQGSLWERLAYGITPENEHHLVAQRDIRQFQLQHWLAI
T2 sequence (Q01959 whole entry): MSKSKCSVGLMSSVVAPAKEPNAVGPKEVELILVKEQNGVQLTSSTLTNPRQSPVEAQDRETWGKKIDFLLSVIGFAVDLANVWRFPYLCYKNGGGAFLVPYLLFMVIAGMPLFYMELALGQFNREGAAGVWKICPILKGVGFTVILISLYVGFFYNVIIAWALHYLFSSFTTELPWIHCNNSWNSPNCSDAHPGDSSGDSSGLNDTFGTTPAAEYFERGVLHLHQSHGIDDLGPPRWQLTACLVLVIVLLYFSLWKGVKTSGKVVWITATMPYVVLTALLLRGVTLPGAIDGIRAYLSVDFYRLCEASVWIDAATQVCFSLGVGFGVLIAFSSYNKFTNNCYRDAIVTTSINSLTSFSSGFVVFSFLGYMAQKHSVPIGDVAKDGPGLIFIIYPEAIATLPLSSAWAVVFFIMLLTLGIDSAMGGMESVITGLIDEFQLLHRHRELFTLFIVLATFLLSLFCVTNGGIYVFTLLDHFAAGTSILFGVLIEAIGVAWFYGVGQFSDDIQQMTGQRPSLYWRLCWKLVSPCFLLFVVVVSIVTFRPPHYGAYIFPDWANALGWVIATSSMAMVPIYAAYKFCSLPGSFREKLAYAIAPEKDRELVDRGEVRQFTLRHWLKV

`CNCCCC1Cc2ccccc2N(c2ccccc2)S1(=O)=O.Cl` (single isomer, unassigned; enantiomer II): the values for the half-inhibitory concentration (IC50) in [1], in [3] and in [4] were 2500 nM, 12 nM and 6600 nM, respectively. The compound further gave a half-life at 1 µM in data set [2] of under 1 min.
Take `CNCCCC1Cc2cc(F)ccc2N(c2ccccc2F)S1(=O)=O` (single isomer, unassigned; enantiomer I): the results for the IC50 in [1] and in data set [3] were 720 nM and 93 nM, respectively. The compound also showed a half-life at 1 µM in data set [2] of over 30 min.
On to `CNCCCC1Cc2ccccc2N(c2c(F)cccc2F)S1(=O)=O.Cl` (single isomer, unassigned; 16f), for which the figures for the IC50 in data set [1] and in data set [3] were 8000 nM and 5 nM, respectively. The compound further came in with a half-life at 1 µM in data set [2] of 4 min. The Activity in the data set with Rattus norvegicus [5] and with Rattus norvegicus [6] was 0 °C each time.
For the compound `CNCCN1Cc2ccccc2N(c2ccccc2F)S1(=O)=O`, the inhibition in data set [7] and in [8] was 24% in each case.
As to `CNCCCC1Cc2ccccc2N(c2ccccc2)S1(=O)=O` (single isomer, unassigned; enantiomer I), the half-maximal inhibitory concentration (IC50) in [1] was found to be 6900 nM; in [3] it was 88 nM. The same compound displayed a half-life at 1 µM in [2] of 3 min.
For `CNCCCC1Cc2ccccc2N(c2ccccc2F)S1(=O)=O` (single isomer, unassigned; enantiomer II), the inhibition in data set [9] came to 74%; in [10] it was 23%.
Take `CNCCCC1Cc2cc(F)ccc2N(c2c(F)cccc2F)S1(=O)=O` (single isomer, unassigned) [listing 1 of 2 here]: in data set [9], the inhibition came to 82%.
As for `CNCCCC1Cc2ccccc2N(c2c(F)cccc2F)S1(=O)=O` (single isomer, unassigned; 16e) [listing 1 of 2 here], in data set [2], the half-life at 1 µM worked out at 3 min. This compound registered an IC50 in [3] of 52 nM.
For `CNCCCC1Cc2ccccc2N(c2ccccc2F)S1(=O)=O.Cl` (single isomer, unassigned; enantiomer II), in that order: under 1 min and 3 nM.
Compound `CNCCN1Cc2cc(F)ccc2N(c2ccccc2F)S1(=O)=O` displayed an IC50 in [1] of 13300 nM. Moreover, in [7], the inhibition was -5%.
For `CNCCCCN1Cc2cc(F)ccc2N(c2ccccc2F)S1(=O)=O`, in that order: 110 nM and 25%.
As for `CNCCCC1Cc2cc(F)ccc2N(c2ccccc2F)S1(=O)=O` (single isomer, unassigned; enantiomer II), in [10], the inhibition turned out to be 50%.
Turning to `CNCCCCN1Cc2ccccc2N(c2ccccc2F)S1(=O)=O`, the half-maximal inhibitory concentration (IC50) in data set [1] came to 2000 nM. For the same compound, the inhibition in [7] came out at 18%.
`CNCCCC1Cc2cc(F)ccc2N(c2ccccc2)S1(=O)=O` (single isomer, unassigned; enantiomer I): in [9], the inhibition is 85%.
With `CNCCCC1Cc2ccccc2N(c2ccccc2F)S1(=O)=O` (single isomer, unassigned; enantiomer I) [listing 1 of 2 here], in data set [2], the half-life at 1 µM was under 1 min. Inhibition in [3] was half-maximal at 55 nM (IC50).
Take `CNCCCN1Cc2ccccc2N(c2ccccc2)S1(=O)=O`: half-maximal inhibition in [1] (IC50) required 6000 nM. In addition, in data set [7], the inhibition was found to be 17%.
With `CNCCCC1Cc2ccccc2N(c2c(F)cccc2F)S1(=O)=O` (single isomer, unassigned; 16e) [listing 2 of 2 here], the inhibition in data set [9] came to 40%.
Turning to `CNCCCN1Cc2ccccc2N(c2ccccc2F)S1(=O)=O`, the midpoint of inhibition in data set [1], the IC50, lay at 5500 nM. Also, in data set [7], the inhibition is -7%.
With `CNCCCC1Cc2cc(F)ccc2N(c2ccccc2F)S1(=O)=O.Cl` (single isomer, unassigned; enantiomer II), the figures for the IC50 in data set [1] and in [3] were 340 nM and 11 nM, respectively. This compound registered a half-life at 1 µM in data set [2] of over 30 min. In addition, the Activity in the data set with Rattus norvegicus [5] turned out to be 2.4 °C; in the data set on Rattus norvegicus [6] it was 1.5 °C; in the data set on Rattus norvegicus [11], 6 h.
For the compound `CNCCCN1Cc2ccccc2N(c2ccc(C)cc2)S1(=O)=O`, the IC50 in data set [3] came to 140 nM.
For `CNCCCC1Cc2cc(F)ccc2N(c2c(F)cccc2F)S1(=O)=O.Cl` (single isomer, unassigned; enantiomer II), the IC50 was determined as 600 nM in data set [1] and 27 nM in [3]. In addition, the half-life at 1 µM in [2] is over 30 min.
Turning to `CNCCCC1Cc2ccccc2N(c2ccccc2F)S1(=O)=O` (single isomer, unassigned; enantiomer I) [listing 2 of 2 here], the inhibition stood at 11% in data set [9] and 21% in data set [10].
Take `CNCCCC1Cc2cc(F)ccc2N(c2ccccc2)S1(=O)=O` (single isomer, unassigned; enantiomer II): the IC50 in data set [1] was 240 nM; in data set [4] it was 4000 nM.
In data set [2], `CNCCCC1Cc2cc(F)ccc2N(c2c(F)cccc2F)S1(=O)=O` (single isomer, unassigned) [listing 2 of 2 here] returned a half-life at 1 µM of over 30 min. This compound also registered a 50% inhibitory concentration (IC50) in data set [3] of 25 nM.
The compound `CNCCCN1Cc2cc(F)ccc2N(c2ccccc2F)S1(=O)=O` returned a 50% inhibitory concentration (IC50) in data set [1] of 1500 nM. For the same compound, the inhibition in data set [7] was 2.5%.
As for `CNCCCC1Cc2ccccc2N(c2c(F)cccc2F)S1(=O)=O` (single isomer, unassigned; 16f), the inhibition in data set [10] came out at 3.8%.

By IC50 is commonly meant the point on the concentration scale where inhibition reaches its midpoint. A higher IC50 goes with weaker potency in that assay. Broadly, the half-life is the time in which the quantity being followed falls by half. A high value points to slow loss. As a reminder, the inhibition is the relative decrease from the control value, in per cent.
